Ends that are not written are not given here.
Columns and labels:
[1] = Solubility of peptides; format: physicochemical
Experimental: The solubility of potential apitopes from S—Ag are determined by visual observations and turbidity measurement by UV spectrophotometry at 280 nm. The solubility of the peptides can be modified by adding amino acids ‘GKK’ or ‘KKK’ (or similar) on both the C- and N-terminus of the sequence. Modifications that may be suitable are described in WO2014/072958 (which is hereby incorporated by reference).
For some of these peptides, the parental peptides were insoluble, and solubility is a critical parameter for them to work as a tolerogenic peptide. Several end-terminal modifications can be used and as example used here they were improved by addition of 3 lysines before and after the original peptide sequence (labelled as ‘-KKK’ versions).

[2] = test system: LN cells and splenocytes upon SAg or peptide restimulation; test: Ex vivo tolerization experiment, DR3tg mice; format: in vivo; details: IFN-γ; for reduction in response to HIP-115 and HIP-115NE3 peptides: highest concentrations of probing peptide
Experimental: FIG. 7: Ex vivo tolerisation protocol. Mice are injected subcutaneously in the flank with 0.1 μg/ml, 1 μg/ml and 10 μg/ml peptide on days −15, −13 and −11, followed by 3 injections of 100 μg/ml on days −8, −6 and −4 (escalating dose regime). On day 0, mice are immunized subcutaneously at the base of the tail with SAg/CFA or peptide/CFA. Mice are sacrificed 10 days after immunization to measure proliferation of LN cells and splenocytes upon SAg or peptide restimulation. LN, lymph nodes.
FIG. 8: Ex vivo tolerance induction by HIP-115NE3-KKK apitope. DR3 mice are injected subcutaneously in the flank with 0.1 μg/ml, 1 μg/ml and 10 μg/ml HIP-115NE3-KKK on days −15, −13 and −11, followed by 3 injections of 100 μg/ml on days −8, −6 and −4 (escalating dose regime). On day 0, mice are immunized subcutaneously at the base of the tail with HIP-115/CFA. Mice are sacrificed 10 days after immunization to measure proliferation of LN cells and splenocytes upon SAg or peptide restimulation. Data represent mean±SEM of the concentration or OD values for the PBS-treated mice (black lines) and peptide-treated mice (color lines). Two-way ANOVA was used to measure overall treatment effects on T cell activation and p-values are written in the graphs. Bonferonni post-hoc testing was used and significant differences are indicated in the graphs (* p<0.05; **** p<0.0001). LN, lymph nodes. (A) Tolerisation against SAg in LN. IFN-γ production expressed as IFN-γ concentration (pg/ml). (B) Tolerisation against SAg in spleen. IFN-γ production expressed as IFN-γ concentration (pg/ml). (C) Tolerisation against HIP-115 and HIP-115NE3 peptides in LN. IFN-γ production expressed as OD values. (D) Tolerisation against HIP-115 and HIP-115NE3 peptides in spleen. IFN-γ production expressed as OD values.
FIG. 9: Ex vivo tolerance induction by HIP-11B apitope. DR3 mice are injected subcutaneously in the flank with 0.1 μg/ml, 1 μg/ml and 10 μg/ml HIP-11B on days −15, −13 and −11, followed by 3 injections of 100 μg/ml on days −8, −6 and −4 (escalating dose regime). On day 0, mice are immunized subcutaneously at the base of the tail with HIP-11B/CFA. Mice are sacrificed 10 days after immunization to measure proliferation of LN cells and splenocytes upon SAg or peptide restimulation. Data represent mean±SEM of the concentration values for the PBS-treated mice (black lines) and peptide-treated mice (color lines). IFN-γ production expressed as IFN-γ concentration (pg/ml). Two-way ANOVA was used to measure overall treatment effects on T cell activation and p-values are written in the graphs. Bonferonni post-hoc testing was used and significant differences are indicated in the graphs (* p<0.05; **** p<0.0001). LN, lymph nodes. (A) Tolerisation against SAg in LN. (B) Tolerisation against SAg in spleen. (C) Tolerisation against HIP-11B peptide in LN. (D) Tolerisation against HIP-11B peptide in spleen.
FIG. 10: Ex vivo tolerance induction by HIP-24DG apitope. DR3 mice are injected subcutaneously in the flank with 0.1 μg/ml, 1 μg/ml and 10 μg/ml HIP-24DG on days −15, −13 and −11, followed by 3 injections of 100 μg/ml on days −8, −6 and −4 (escalating dose regime). On day 0, mice are immunized subcutaneously at the base of the tail with HIP-24DG+HIP-24HM/CFA. Mice are sacrificed 10 days after immunization to measure proliferation of LN cells and splenocytes upon SAg or peptide restimulation. Data represent mean±SEM of the OD values for the PBS-treated mice (black lines) and peptide-treated mice (color lines). IFN-γ production expressed as OD values. LN, lymph nodes. Two-way ANOVA was used to measure overall treatment effects on T cell activation and p-values are written in the graphs. Bonferonni post-hoc testing was used and significant differences are indicated in the graphs (* p<0.05; ** p<0.01; *** p<0.001: **** p<0.0001). LN, lymph nodes. (A) Tolerisation against SAg in LN. (B) Tolerisation against HIP-24DG in LN. (C) Tolerisation against HIP-24HM2 peptide in LN. […]

In the case of “KKKAFVEQVANVVLKKK-NH2 [HIP-9K1-KKK, KKKAFVEQVANVVLKKK]”, the solubility [1] is reported as “soluble”.
With KKKLTFRRDLYFSRVQVYKKK-NH2 [HIP-17J-KKK] the “tolerization against SAg” value ([2]; spleen, DR3 mice, escalating dose regime s.c.) was “tolerization induced”.
In the case of “KKKVIFKKISRDKSVTIYLGKKK-NH2 [HIP-115NE3-KKK]”, the “reduction in response to SAg” value ([2]; LN and spleen, highest dose of SAg used for probing, escalating dose regime s.c.) is reported as 70%, the “reduction in response to HIP-115 and HIP-115NE3 peptides” value ([2]; LN) is reported as 55% and the “reduction in response to HIP-115 and HIP-115NE3 peptides” value ([2]; spleen) is reported as 65%. The solubility [1] was “soluble”.
In the case of “LPLLANNRERRGIA-NH2 [HIP-24HM3, LPLLANNRERRGIA]”, the solubility [1] is reported as “soluble”.
For “LTKTLTLLPLLANNRERR-NH2 [HIP-24DG, LTKTLTLLPLLANNRERR]”, the “tolerization against the peptide itself / peptides of the same region” value ([2]; LN, DR3 mice) was “some tolerization”, the “tolerization against SAg” value ([2]; LN, DR3 mice, escalating dose regime s.c.) was “tolerization induced” and the solubility [1] was “soluble”.
For “VIFKKISRDKSVTIYLG-NH2 [HIP-115NE3, VIFKKISRDKSVTIYLG]”, the solubility [1] was “insoluble”.
